Laboratory results as given in patent EP1285918A1, “C7 Ester substituted taxanes as antitumor agents” (Florida State University Research Foundation, Inc., priority 2001, dated 2003).

What follows are compounds tested on HCT116 (assay: In Vitro cytotoxicity measured by the cell colony formation assay). Details: Homo sapiens, HCT-116; 72 h drug incubation, colonies counted after 7 days; concentration producing 50% inhibition of colony formation; read-out: IN VITRO ID 50 (nm) HCT116.
Assay type: cell-based
Method: In Vitro cytotoxicity measured by the cell colony formation assay
Four hundred cells (HCT116) were plated in 60 mm Petri dishes containing 2.7 mL of medium (modified McCoy's 5a medium containing 10% fetal bovine serum and 100 units/mL penicillin and […] streptomycin). The cells were incubated in a CO2 incubator at 37 °C for 5 h for attachment to the bottom of Petri dishes. The compounds identified in Example 2 were made up fresh in medium at ten times the final concentration, and then 0.3 mL of this stock solution was added to the 2.7 mL of medium in the dish. The cells were then incubated with drugs for 72 h at 37 ° C. At the end of incubation the drug-containing media were decanted, the dishes were rinsed with 4 mL of Hank's Balance Salt Solution (HBSS), 5 mL of fresh medium was added, and the dishes were returned to the incubator for colony formation. The cell colonies were counted using a colony counter after incubation for 7 days. Cell survival was calculated and the values of ID50 (the drug concentration producing 50% inhibition of colony formation) were determined for each tested compound.
With `CCC(=O)O[C@H]1C[C@H]2OC[C@@]2(OC(C)=O)[C@H]2[C@H](OC(=O)c3ccccc3)[C@]3(O)C[C@H](OC(=O)[C@H](O)[C@@H](NC(=O)OC(C)C)c4cccs4)C(C)=C([C@@H](O)C(=O)[C@]12C)C3(C)C` [Compound 3082] the IC50 was under 1 nM. Work on `CCC(=O)O[C@H]1C[C@H]2OC[C@@]2(OC(C)=O)[C@H]2[C@H](OC(=O)c3ccccc3)[C@]3(O)C[C@H](OC(=O)[C@H](O)[C@@H](NC(=O)c4ccco4)c4ccco4)C(C)=C([C@@H](O)C(=O)[C@]12C)C3(C)C` [Compound 3629] yielded an IC50 of under 1 nM. For `CCC(=O)OC1CC2OCC2(OC(C)=O)C2C(OC(=O)c3ccccc3)C3(O)CC(OC(=O)C(O)C(NC(=O)OCC(C)C)c4ccsc4)C(C)=C(C(O)C(=O)C12C)C3(C)C` (stereo not drawn) [Compound 4544], the IC50 was under 10 nM. For `CCC(=O)O[C@H]1C[C@H]2OC[C@@]2(OC(C)=O)[C@H]2[C@H](OC(=O)c3ccccc3)[C@]3(O)C[C@H](OC(=O)[C@H](O)[C@@H](NC(=O)OCC(C)C)C4CC4)C(C)=C([C@@H](O)C(=O)[C@]12C)C3(C)C` [Compound 5191], the IC50 was under 10 nM. `CCC(=O)O[C@H]1C[C@H]2OC[C@@]2(OC(C)=O)[C@H]2[C@H](OC(=O)c3ccccc3)[C@]3(O)C[C@H](OC(=O)[C@H](O)[C@@H](NC(=O)OC(C)(C)C)C4CC4)C(C)=C([C@@H](O)C(=O)[C@]12C)C3(C)C` [Compound 5070] gave an IC50 of under 10 nM. Work on `CCCCC(=O)O[C@H]1C[C@H]2OC[C@@]2(OC(C)=O)[C@H]2[C@H](OC(=O)c3ccccc3)[C@]3(O)C[C@H](OC(=O)[C@H](O)[C@@H](NC(=O)OC(C)(C)CC)c4ccco4)C(C)=C([C@@H](O)C(=O)[C@]12C)C3(C)C` [Compound 6343] yielded an IC50 of under 10 nM. In the case of `CCCC(=O)O[C@H]1C[C@H]2OC[C@@]2(OC(C)=O)[C@H]2[C@H](OC(=O)c3ccccc3)[C@]3(O)C[C@H](OC(=O)[C@H](O)[C@@H](NC(=O)OC(C)(C)C)C4CC4)C(C)=C([C@@H](O)C(=O)[C@]12C)C3(C)C` [Compound 5080], the IC50 is reported as under 1 nM. Work on `CCCC(=O)OC1CC2OCC2(OC(C)=O)C2C(OC(=O)c3ccccc3)C3(O)CC(OC(=O)C(O)C(NC(=O)c4cccs4)c4cccs4)C(C)=C(C(O)C(=O)C12C)C3(C)C` (stereo not drawn) [Compound 4388] yielded an IC50 of under 1 nM. `CCCC(=O)OC1CC2OCC2(OC(C)=O)C2C(OC(=O)c3ccccc3)C3(O)CC(OC(=O)C(O)C(NC(=O)OC(C)(C)C)c4ccco4)C(C)=C(C(O)C(=O)C12C)C3(C)C` (stereo not drawn) [Compound 4499] gave an IC50 of under 1 nM. `CCC(=O)O[C@H]1C[C@H]2OC[C@@]2(OC(C)=O)[C@H]2[C@H](OC(=O)c3ccccc3)[C@]3(O)C[C@H](OC(=O)[C@H](O)[C@@H](NC(=O)OCC(C)C)c4cccs4)C(C)=C([C@@H](O)C(=O)[C@]12C)C3(C)C` [Compound 3232] was tested, and the IC50 was under 1 nM. In the case of `CC(=O)O[C@@]12CO[C@@H]1C[C@H](OC(=O)C(C)C)[C@@]1(C)C(=O)[C@H](O)C3=C(C)[C@@H](OC(=O)[C@H](O)[C@@H](NC(=O)C(C)C)c4ccco4)C[C@@](O)([C@@H](OC(=O)c4ccccc4)[C@H]21)C3(C)C` [Compound 6121], the IC50 is reported as under 10 nM. Work on `CCCC(=O)OC1CC2OCC2(OC(C)=O)C2C(OC(=O)c3ccccc3)C3(O)CC(OC(=O)C(O)C(NC(=O)c4ccccc4)c4cccs4)C(C)=C(C(O)C(=O)C12C)C3(C)C` (stereo not drawn) [Compound 4175] yielded an IC50 of under 10 nM. Work on `CCCC(=O)OC1CC2OCC2(OC(C)=O)C2C(OC(=O)c3ccccc3)C3(O)CC(OC(=O)C(O)C(NC(=O)OCC(C)C)c4ccco4)C(C)=C(C(O)C(=O)C12C)C3(C)C` (stereo not drawn) [Compound 4616] yielded an IC50 of under 1 nM. `CCCC(=O)N[C@@H](c1cccs1)[C@@H](O)C(=O)O[C@H]1C[C@@]2(O)[C@@H](OC(=O)c3ccccc3)[C@@H]3[C@]4(OC(C)=O)CO[C@@H]4C[C@H](OC(=O)CC)[C@@]3(C)C(=O)[C@H](O)C(=C1C)C2(C)C` [Compound 3327] gave an IC50 of under 10 nM. In the case of `CCCC(=O)OC1CC2OCC2(OC(C)=O)C2C(OC(=O)c3ccccc3)C3(O)CC(OC(=O)C(O)C(NC(=O)OC(C)C)c4cccs4)C(C)=C(C(O)C(=O)C12C)C3(C)C` (stereo not drawn) [Compound 4135], the IC50 is reported as under 1 nM. In the case of `CCC(C)(C)OC(=O)N[C@@H](c1ccco1)[C@@H](O)C(=O)O[C@H]1C[C@@]2(O)[C@@H](OC(=O)c3ccccc3)[C@@H]3[C@]4(OC(C)=O)CO[C@@H]4C[C@H](OC(=O)CC(C)C)[C@@]3(C)C(=O)[C@H](O)C(=C1C)C2(C)C` [Compound 6282], the IC50 is reported as under 10 nM. `CCC(=O)O[C@H]1C[C@H]2OC[C@@]2(OC(C)=O)[C@H]2[C@H](OC(=O)c3ccccc3)[C@]3(O)C[C@H](OC(=O)[C@H](O)[C@@H](NC(=O)OC(C)(C)C)C(C)C)C(C)=C([C@@H](O)C(=O)[C@]12C)C3(C)C` [Compound 1434] showed an IC50 of under 10 nM. With `CCOC(=O)N[C@@H](c1ccco1)[C@@H](O)C(=O)O[C@H]1C[C@@]2(O)[C@@H](OC(=O)c3ccccc3)[C@@H]3[C@]4(OC(C)=O)CO[C@@H]4C[C@H](OC(=O)CC)[C@@]3(C)C(=O)[C@H](O)C(=C1C)C2(C)C` [Compound 3611] the IC50 was under 1 nM. `CCC(=O)O[C@H]1C[C@H]2OC[C@@]2(OC(C)=O)[C@H]2[C@H](OC(=O)c3ccccc3)[C@]3(O)C[C@H](OC(=O)[C@H](O)[C@@H](NC(=O)OC(C)(C)CC)c4ccco4)C(C)=C([C@@H](O)C(=O)[C@]12C)C3(C)C` [Compound 6212] showed an IC50 of under 1 nM. Work on `CCC(=O)O[C@H]1C[C@H]2OC[C@@]2(OC(C)=O)[C@H]2[C@H](OC(=O)c3ccccc3)[C@]3(O)C[C@H](OC(=O)[C@H](O)[C@@H](NC(=O)OCC(C)C)c4ccoc4)C(C)=C([C@@H](O)C(=O)[C@]12C)C3(C)C` [Compound 4787] yielded an IC50 of under 10 nM. Compound `CCCC(=O)OC1CC2OCC2(OC(C)=O)C2C(OC(=O)c3ccccc3)C3(O)CC(OC(=O)C(O)C(NC(=O)OC(C)(C)C)c4ccoc4)C(C)=C(C(O)C(=O)C12C)C3(C)C` (stereo not drawn) [Compound 4394] has an IC50 of under 1 nM. `CCC(=O)OC1CC2OCC2(OC(C)=O)C2C(OC(=O)c3ccccc3)C3(O)CC(OC(=O)C(O)C(NC(=O)c4cccnc4)c4cccs4)C(C)=C(C(O)C(=O)C12C)C3(C)C` (stereo not drawn) [Compound 4106] gave an IC50 of under 10 nM. For `CCCC(=O)OC1CC2OCC2(OC(C)=O)C2C(OC(=O)c3ccccc3)C3(O)CC(OC(=O)C(O)C(NC(=O)c4ccco4)c4cccs4)C(C)=C(C(O)C(=O)C12C)C3(C)C` (stereo not drawn) [Compound 4219], the IC50 was 29 nM. With `CCCC(=O)OC1CC2OCC2(OC(C)=O)C2C(OC(=O)c3ccccc3)C3(O)CC(OC(=O)C(O)C(NC(=O)OC(C)(C)C)c4cccs4)C(C)=C(C(O)C(=O)C12C)C3(C)C` (stereo not drawn) [Compound 4256] the IC50 was under 1 nM. In the case of `CCC(=O)O[C@H]1C[C@H]2OC[C@@]2(OC(C)=O)[C@H]2[C@H](OC(=O)c3ccccc3)[C@]3(O)C[C@H](OC(=O)[C@H](O)[C@@H](NC(=O)OC(C)C)c4ccco4)C(C)=C([C@@H](O)C(=O)[C@]12C)C3(C)C` [Compound 3444], the IC50 is reported as under 1 nM. `CCC(=O)O[C@H]1C[C@H]2OC[C@@]2(OC(C)=O)[C@H]2[C@H](OC(=O)c3ccccc3)[C@]3(O)C[C@H](OC(=O)[C@H](O)[C@@H](NC(=O)OC(C)(C)C)c4nccs4)C(C)=C([C@@H](O)C(=O)[C@]12C)C3(C)C` [Compound 6363] showed an IC50 of under 10 nM. `CCC(=O)O[C@H]1C[C@H]2OC[C@@]2(OC(C)=O)[C@H]2[C@H](OC(=O)c3ccccc3)[C@]3(O)C[C@H](OC(=O)[C@H](O)[C@@H](NC(=O)c4ccccc4)c4ccsc4)C(C)=C([C@@H](O)C(=O)[C@]12C)C3(C)C` [Compound 3388] was tested, and the IC50 was under 10 nM. For `CCCC(=O)OC1CC2OCC2(OC(C)=O)C2C(OC(=O)c3ccccc3)C3(O)CC(OC(=O)C(O)C(NC(=O)OCC(C)C)c4ccsc4)C(C)=C(C(O)C(=O)C12C)C3(C)C` (stereo not drawn) [Compound 4600], the IC50 was under 10 nM. `CCC(=O)O[C@H]1C[C@H]2OC[C@@]2(OC(C)=O)[C@H]2[C@H](OC(=O)c3ccccc3)[C@]3(O)C[C@H](OC(=O)[C@H](O)[C@@H](NC(=O)OC(C)(C)C)C4CCC4)C(C)=C([C@@H](O)C(=O)[C@]12C)C3(C)C` [Compound 1447] was tested, and the IC50 was under 10 nM. `CCCC(=O)OC1CC2OCC2(OC(C)=O)C2C(OC(=O)c3ccccc3)C3(O)CC(OC(=O)C(O)C(NC(=O)OC(C)(C)C)c4ccsc4)C(C)=C(C(O)C(=O)C12C)C3(C)C` (stereo not drawn) [Compound 4446] was tested, and the IC50 was under 1 nM.
